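Five compound concentrations were applied to cells in 96-well plates for 48 hours; endpoints were derived by simple linear interpolation of the resulting dose-response curve. GI50: concentration for 50% inhibition of growth.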 Activity calls are given as the source filed them. Rule as the data show it: active = GI50 up to about 1.1 µM and inactive = higher.
How the values were obtained:
Assay in all cases: DTP human tumour cell line panel, 48 h
CAKI-1 = system: CAKI-1
CCRF-CEM = system: CCRF-CEM
MOLT-4 = system: MOLT-4
M14 = system: M14
NCI-H460 = system: NCI-H460
DMS-273 = system: DMS-273
TK-10 = system: TK-10
OVCAR-8 = system: OVCAR-8
SN12C = system: SN12C
SF-295 = system: SF-295
NCI-H522 = system: NCI-H522
COLO 205 = system: COLO 205
HOP-62 = system: HOP-62
KM12 = system: KM12
786-0 = system: 786-0
DMS-114 = system: DMS-114
OVCAR-4 = system: OVCAR-4
DLD-1 = system: DLD-1
SK-MEL-28 = system: SK-MEL-28
OVCAR-3 = system: OVCAR-3
LOX IMVI = system: LOX IMVI
HOP-18 = system: HOP-18
IGROV-1 = system: IGROV-1
HCC 2998 = system: HCC 2998
A498 = system: A498
SF-539 = system: SF-539
K562 = system: K562
RXF 393 = system: RXF 393
HOP-92 = system: HOP-92
SW-620 = system: SW-620
RPMI-8226 = system: RPMI-8226
SNB-75 = system: SNB-75
SNB-19 = system: SNB-19
U-251 = system: U-251
UACC-62 = system: UACC-62
NCI-H23 = system: NCI-H23
UO-31 = system: UO-31
A549 = system: A549
SF-268 = system: SF-268
SK-MEL-2 = system: SK-MEL-2
SK-OV-3 = system: SK-OV-3
HCT-116 = system: HCT-116
OVCAR-5 = system: OVCAR-5
ACHN = system: ACHN
HL-60 = system: HL-60
HCT-15 = system: HCT-15
HT-29 = system: HT-29
KM-20L2 = system: KM-20L2
LXFL 529 = system: LXFL 529
SK-MEL-5 = system: SK-MEL-5
Malme-3M = system: Malme-3M
UACC-257 = system: UACC-257
M19-MEL = system: M19-MEL
EKVX = system: EKVX
SNB-78 = system: SNB-78
SR = system: SR
NCI-H226 = system: NCI-H226

For `Sc1ncnc2c1ncn2C1CCCO1` (centres undefined), the GI50 (CAKI-1) was > 100 µM (inactive), the GI50 (CCRF-CEM) was > 100 µM (inactive) and the GI50 (MOLT-4) was > 100 µM (inactive). The GI50 (M14) was 43.3 µM (inactive), the GI50 (NCI-H460) was > 100 µM (inactive) and the GI50 (DMS-273) was 76.2 µM (inactive). The GI50 (TK-10) was 89.5 µM (inactive), the GI50 (OVCAR-8) was > 100 µM (inactive) and the GI50 (SN12C) was > 100 µM (inactive). For the same molecule, the GI50 (SF-295) was > 100 µM (inactive), the GI50 (NCI-H522) was 64.6 µM (inactive) and the GI50 (COLO 205) was > 100 µM (inactive). The GI50 (HOP-62) was 64.4 µM (inactive), the GI50 (KM12) was > 100 µM (inactive) and the GI50 (786-0) was > 100 µM (inactive). The GI50 (DMS-114) was 65.8 µM (inactive), the GI50 (OVCAR-4) was 51.1 µM (inactive) and the GI50 (DLD-1) was 89.9 µM (inactive). For the same molecule, the GI50 (SK-MEL-28) was > 100 µM (inactive), the GI50 (OVCAR-3) was 22.6 µM (inactive) and the GI50 (LOX IMVI) was 37.6 µM (inactive). For the same molecule, the GI50 (HOP-18) was > 100 µM (inactive), the GI50 (IGROV-1) was > 100 µM (inactive) and the GI50 (HCC 2998) was > 100 µM (inactive). For the same molecule, the GI50 (A498) was > 100 µM (inactive), the GI50 (SF-539) was > 100 µM (inactive) and the GI50 (K562) was 38.8 µM (inactive). The GI50 (RXF 393) was > 100 µM (inactive), the GI50 (HOP-92) was 39.3 µM (inactive) and the GI50 (SW-620) was > 100 µM (inactive). The GI50 (RPMI-8226) was 99.5 µM (inactive), the GI50 (SNB-75) was 65.3 µM (inactive) and the GI50 (SNB-19) was > 100 µM (inactive). For the same molecule, the GI50 (U-251) was > 100 µM (inactive), the GI50 (UACC-62) was 76.2 µM (inactive) and the GI50 (NCI-H23) was > 100 µM (inactive). For the same molecule, the GI50 (UO-31) was > 100 µM (inactive), the GI50 (A549) was > 100 µM (inactive) and the GI50 (SF-268) was > 100 µM (inactive). The GI50 (SK-MEL-2) was > 100 µM (inactive), the GI50 (SK-OV-3) was 35.8 µM (inactive) and the GI50 (HCT-116) was 55.5 µM (inactive). For the same molecule, the GI50 (OVCAR-5) was > 100 µM (inactive), the GI50 (ACHN) was > 100 µM (inactive) and the GI50 (HL-60) was > 100 µM (inactive). The GI50 (HCT-15) was > 100 µM, the GI50 (HT-29) was > 100 µM (inactive) and the GI50 (KM-20L2) was > 100 µM (inactive). For the same molecule, the GI50 (LXFL 529) was > 100 µM (inactive), the GI50 (SK-MEL-5) was > 100 µM (inactive) and the GI50 (Malme-3M) was > 100 µM (inactive).

With `C=C1C2CCCC1C1(S(C)(=O)=O)CCCCC21O` (centres undefined) the GI50 (CAKI-1) was > 100 µM (inactive), the GI50 (UACC-257) was > 100 µM (inactive) and the GI50 (M19-MEL) was > 100 µM (inactive). The GI50 (MOLT-4) was > 100 µM (inactive), the GI50 (M14) was > 100 µM (inactive) and the GI50 (NCI-H460) was > 100 µM (inactive). For the same molecule, the GI50 (DMS-273) was > 100 µM (inactive), the GI50 (TK-10) was > 100 µM (inactive) and the GI50 (OVCAR-8) was > 100 µM (inactive). For the same molecule, the GI50 (SN12C) was > 100 µM (inactive), the GI50 (SF-295) was > 100 µM (inactive) and the GI50 (NCI-H522) was > 100 µM (inactive). For the same molecule, the GI50 (COLO 205) was > 100 µM (inactive), the GI50 (KM12) was > 100 µM (inactive) and the GI50 (EKVX) was > 100 µM (inactive). The GI50 (786-0) was > 100 µM (inactive), the GI50 (DMS-114) was > 100 µM (inactive) and the GI50 (OVCAR-4) was > 100 µM (inactive). The GI50 (DLD-1) was > 100 µM (inactive), the GI50 (SK-MEL-28) was > 100 µM (inactive) and the GI50 (OVCAR-3) was > 100 µM (inactive). For the same molecule, the GI50 (HOP-18) was > 100 µM (inactive), the GI50 (IGROV-1) was > 100 µM (inactive) and the GI50 (HCC 2998) was > 100 µM (inactive). The GI50 (SNB-78) was > 100 µM (inactive), the GI50 (SF-539) was > 100 µM (inactive) and the GI50 (K562) was > 100 µM (inactive). The GI50 (HOP-92) was < 0.01 µM (active), the GI50 (SW-620) was > 100 µM (inactive) and the GI50 (RPMI-8226) was > 100 µM (inactive). For the same molecule, the GI50 (SNB-75) was > 100 µM (inactive), the GI50 (SNB-19) was > 100 µM (inactive) and the GI50 (U-251) was > 100 µM (inactive). For the same molecule, the GI50 (UACC-62) was > 100 µM (inactive), the GI50 (NCI-H23) was > 100 µM (inactive) and the GI50 (UO-31) was > 100 µM (inactive). For the same molecule, the GI50 (A549) was > 100 µM (inactive), the GI50 (SK-MEL-2) was > 100 µM (inactive) and the GI50 (SK-OV-3) was > 100 µM (inactive). For the same molecule, the GI50 (SR) was > 100 µM (inactive), the GI50 (HCT-116) was > 100 µM (inactive) and the GI50 (OVCAR-5) was > 100 µM (inactive). The GI50 (ACHN) was > 100 µM (inactive), the GI50 (NCI-H226) was > 100 µM (inactive) and the GI50 (HCT-15) was > 100 µM. The GI50 (HT-29) was > 100 µM (inactive), the GI50 (KM-20L2) was > 100 µM (inactive) and the GI50 (LXFL 529) was > 100 µM (inactive). The GI50 (SK-MEL-5) was > 100 µM (inactive) and the GI50 (Malme-3M) was > 100 µM (inactive).

For `C=CCCCCn1c2ccccc2c2c(C)c3c[n+](C)ccc3c(C)c21`, the GI50 (CAKI-1) was 14.3 µM (inactive), the GI50 (UACC-257) was 0.391 µM (active) and the GI50 (CCRF-CEM) was 0.335 µM (active). For the same molecule, the GI50 (M19-MEL) was 0.296 µM (active), the GI50 (MOLT-4) was 0.298 µM (active) and the GI50 (M14) was 0.979 µM (active). For the same molecule, the GI50 (NCI-H460) was 0.356 µM (active), the GI50 (TK-10) was 1.86 µM (inactive) and the GI50 (OVCAR-8) was 0.197 µM (active). The GI50 (SN12C) was 0.234 µM (active), the GI50 (SF-295) was 0.208 µM (active) and the GI50 (NCI-H522) was 0.176 µM (active). The GI50 (COLO 205) was 0.25 µM (active), the GI50 (HOP-62) was 0.643 µM (active) and the GI50 (KM12) was 0.392 µM (active). For the same molecule, the GI50 (786-0) was 0.752 µM (active), the GI50 (DMS-114) was 0.118 µM (active) and the GI50 (OVCAR-4) was 0.284 µM (active). For the same molecule, the GI50 (DLD-1) was 0.607 µM (active), the GI50 (SK-MEL-28) was 0.426 µM (active) and the GI50 (OVCAR-3) was 0.288 µM (active). For the same molecule, the GI50 (LOX IMVI) was 0.284 µM (active), the GI50 (HOP-18) was 0.0912 µM (active) and the GI50 (IGROV-1) was 0.252 µM (active). For the same molecule, the GI50 (A498) was 1.44 µM (inactive), the GI50 (SNB-78) was 0.387 µM (active) and the GI50 (SF-539) was 0.564 µM (active). For the same molecule, the GI50 (K562) was 0.281 µM (active), the GI50 (RXF 393) was 0.684 µM (active) and the GI50 (HOP-92) was 0.237 µM (active). For the same molecule, the GI50 (SW-620) was 0.296 µM (active), the GI50 (RPMI-8226) was 0.212 µM (active) and the GI50 (SNB-75) was 0.713 µM (active). The GI50 (SNB-19) was 0.412 µM (active), the GI50 (U-251) was 0.197 µM (active) and the GI50 (UACC-62) was 0.336 µM (active). For the same molecule, the GI50 (NCI-H23) was 0.382 µM (active), the GI50 (UO-31) was 5.28 µM (inactive) and the GI50 (A549) was 0.3 µM (active). For the same molecule, the GI50 (SF-268) was 0.366 µM (active), the GI50 (SK-MEL-2) was 0.396 µM (active) and the GI50 (SK-OV-3) was 1.2 µM (inactive). The GI50 (SR) was 0.284 µM (active), the GI50 (HCT-116) was 0.244 µM (active) and the GI50 (OVCAR-5) was 1.07 µM (active). For the same molecule, the GI50 (ACHN) was 2.68 µM (inactive), the GI50 (HL-60) was 0.171 µM (active) and the GI50 (NCI-H226) was 0.212 µM (active). For the same molecule, the GI50 (HT-29) was 0.271 µM (active), the GI50 (KM-20L2) was 0.352 µM (active) and the GI50 (LXFL 529) was 0.176 µM (active). For the same molecule, the GI50 (SK-MEL-5) was 0.329 µM (active) and the GI50 (Malme-3M) was 0.275 µM (active).
